Measured values taken from US12522836B2, “Nonhuman animal and use for same” (Inter-University Research Institute Corporation Research …, priority 2019, dated 2026).

Columns and labels:
[1] = biological target: T1, mAID-EGFP reporters (Oryza sativa subsp. japonica, UniProt Q7XVM8, F74G); assay: Reporter removal in transgenic mice expressing OsTIR1(F74G) and mAID-EGFP reporter; type: in vivo
T1 construct: expressed in transfected cells; host or cells: transgenic mice (organs and E13.5 embryos)
Procedure: In order to further confirm whether the AID2 system functioned in a living body of mice, an attempt to establish transgenic mice expressing OsTIR1(WT) or OsTIR1(F74G) together with mAID-EGFP reporters was performed. As shown in FIG. 11(A), OsTIR1(WT) was confirmed to cause embryonic lethality. In contrast, the establishment of a plurality of mouse strains expressing OsTIR1(F74G) and reporters was confirmed (refer to FIG. 11(A).
Two adult female transgenic mice from the same TG strain were used to remove reporters in a plurality of organs.
First, as shown in FIG. 11(B), the expression of reporters in the ovaries and fallopian tubes surgically removed from untreated transgenic mice was confirmed.
Subsequently, pseudo-administration is performed on one mouse and 10 mg/kg 5-ph-IAA was intraperitoneally administered to the other mouse. […] The same data was obtained for adult male mice derived from the same TG strain.
Finally, the expression of the reporter in embryos was examined to confirm a rate of removal of a target protein using the AID2 system in vivo. 5 mg/kg of 5-Ph-IAA was intraperitoneally administered to pregnant females with E13.5 embryos. As shown in FIG. 11(D), a reporter signal disappeared within 1 hour after administration and rapid removal of the reporter in vivo was confirmed.

[2] = biological target: T2, OsTIR1(F74G)/mAID-EGFP-NLS expressing cell (Oryza sativa subsp. japonica, UniProt Q7XVM8, F74G); assay: FACS analysis of degradation of mAID-EGFP-NLS after addition of auxin analog; type: cell-based, human; settings: Example 2; 50 nM, 100 nM, 500 nM or 1 μM, 24 hours; compared with OsTIR1(WT) cell plus auxin
T2 construct: expressed in transfected cells; host or cells: HCT116
Procedure: An HCT116 cell (human colon adenocarcinoma-derived cell) having DNA in which an OsTIR1(WT) gene or OsTIR1(F74G) gene and an mAID-EGFP (green fluorescent protein)-NLS (nuclear localization signal) gene were encoded through a P2A sequence inserted onto a chromosome by a transposon (hereinafter, referred to as “OsTIR1(WT)/mAID-EGFP-NLS expressing cell” or “OsTIR1(F74G)/mAID-EGFP-NLS expressing cell”) was prepared (refer to FIG. 1).
The auxin analog (concentration in culture medium: […]) was added to the OsTIR1(F74G)/mAID-EGFP-NLS expressing cell and cultured for 24 hours. In addition, as a control, a cell containing an auxin added to the OsTIR1(WT)/mAID-EGFP-NLS expressing cell was also prepared.
After 24 hours from the addition of the auxin analog, the cells were collected, and FACS analysis was performed.
An HCT116 cell (human colon adenocarcinoma-derived cell) in which a plasmid containing an OsTIR1(WT) gene or OsTIR1(F74G) gene was introduced and an mAID-EGFP (green fluorescent protein)-NLS (nuclear localization signal) gene was inserted onto a chromosome (hereinafter, referred to as “OsTIR1(WT)/mAID-EGFP-NLS expressing cell” or “OsTIR1(F74G)/mAID-EGFP-NLS expressing cell”) was prepared (refer to FIG. 1).
The auxin analog (concentration in culture medium: 0, 50 nM, 100 nM, 500 nM or 1 μM) was added to the OsTIR1(F74G)/mAID-EGFP-NLS expressing cell and cultured for 24 hours. […]

[3] = biological target: T3, TOP2A-mAC xenografts (Oryza sativa subsp. japonica, UniProt Q7XVM8, F74G); assay: TOP2A-mAC cell xenograft tumor growth in nude mice; type: in vivo; settings: 1, 3 and 10 mg/kg intraperitoneally daily, day 7 to day 14
T3 construct: expressed in transfected cells; host or cells: HCT116 CMV-OsTIR1(F74G), xenografted into nude mice
Procedure: (§1) Subsequently, mAID-BRD4 cells or TOP2A-mAC cells were subcutaneously transplanted into nude mice and xenograft tumors were formed in 1 week. After that, 0, 1, 3, and 10 mg/kg of 5-Ph-IAA were intraperitoneally administered daily for an additional week (day 7 to day 14). […] It was confirmed that, when the AID2 system is used, mAID-BRD4 and TOP2A-mAC were successfully removed in a living body of mice, causing tumor suppression.

[4] = biological target: T4, OsTIR1(F74G)/DHC1-mAID-Clover expressing cell (Oryza sativa subsp. japonica, UniProt Q7XVM8, F74G); assay: Degradation induction test of DHC1 (microscopy, Western blotting); type: cell-based, human
T4 construct: expressed in transfected cells; host or cells: HCT116 (OsTIR1 at AAVS1 locus; knock-in at the endogenous DHC1 gene)
Text: In the HCT116 cell, an OsTIR1(WT) gene or OsTIR1(F74G) gene was introduced into an AAVS1 gene locus, which is a safe harbor site, using a CRISPR/Cas system, and an OsTIR1(WT)-expressed HCT116 cell or OsTIR1(F74G)-expressed HCT116 cell was constructed.
A plasmid vector having mAID, clover and a neomycin resistance gene and having a homologous sequence with respect to a DHC1 gene so as to sandwich mAID and the neomycin resistance gene was introduced into the OsTIR1(WT)-expressed HCT116 cell or OsTIR1(F74G)-expressed HCT116 cell using a CRISPR/Cas9 system, and homologous recombination with the endogenous DHC1 gene was performed. Next, after selection by G418, the formed colony was dyed using crystal violet. “DHC1” is the abbreviation for dynein heavy chain 1.
A degradation induction test of DHC1 was performed using the HCT116 cell expressing OsTIR1(F74G) on which homologous recombination had been performed in the above-described section 2 (hereinafter, referred to as “OsTIR1(F74G)/DHC1-mAID-Clover expressing cell”).
The compound indicated by the formula (I-2) (also referred to as 5-Ph-IAA) was added to the OsTIR1(F74G)/DHC1-mAID-Clover expressing cell, and the appearance of the cell after 24 hours was observed (FIG. 4(A)).
Furthermore, the degradation of DHC1 was confirmed by Western blotting (FIG. 4(B)).

[5] = biological target: T5, mAID-BRD4 xenografts (Oryza sativa subsp. japonica, UniProt Q7XVM8, F74G); assay: mAID-BRD4 cell xenograft tumor growth in nude mice; type: in vivo
T5 construct: expressed in transfected cells; host or cells: HCT116 CMV-OsTIR1(F74G), xenografted into nude mice
Procedure: as §1
Furthermore, 3 mg/kg of 5-Ph-IAA was orally administered to nude mice in which mAID-BRD4 cells were xenografted. FIG. 13(A) is a diagram showing an oral administration schedule of 5-Ph-IAA.

[6] = system: HCT116 cells expressing OsTIR1(F74G); assay: Control xenograft of HCT116 cells expressing OsTIR1(F74G) in nude mice; type: in vivo; settings: 1, 3 and 10 mg/kg intraperitoneally daily, day 7 to day 14; control without degron-tagged target
[7] = system: OsTIR1(F74A)/mAID-EGFP-NLS-expressing cells; assay: Reversibility of the AID2 system: reporter recovery after removal of 5-Ph-IAA; type: cell-based; settings: medium replaced with medium without 5-Ph-IAA
[8] = biological target: T6, mAID-EGFP-CENPH (Oryza sativa subsp. japonica, UniProt Q7XVM8, F74G); assay: Western blotting of mAID-EGFP-CENPH degradation in HeLa cell (transposon vector + CRISPR-KO system); type: cell-based, human; settings: anti-CENPH antibody, endogenous CENPH knocked out
T6 construct: P2A linker (self-cleaving; remnant); expressed in transfected cells; host or cells: HeLa
Text: (§2) In this degradation system, (1) a transposon vector in which an OsTIR1(F74G) gene and an mAID-target gene are connected by a P2A linker gene and (2) a CRISPR-KO vector for knocking out an endogenous target gene containing gRNA and a Cas9 gene are contained.
(§3) In this degradation system, the OsTIR1(F74G) gene and the mAID-target gene in a genome are integrated by the transposon vector, and an endogenous target gene is knocked out by the CRISPR-KO vector.
(§4) The transposon vector in which an OsTIR1(F74G) gene and an mAID-EGFP-CENPH or mAID-EGFP-POLD1 target gene were connected by a P2A linker gene was constructed, and this vector was introduced into a HeLa cell together with the CRISPR-KO vector targeting an endogenous CENPH or POLD1 gene. 5-Ph-IAA was added to such a cell, and the degradation of the target protein was confirmed by Western blotting (FIG. 6).

[9] = Toxicity evaluation in mice (body weight); type: in vivo; settings: 1, 3 and 10 mg/kg intraperitoneally daily for 1 week
Procedure: Toxicity was evaluated by intraperitoneally administering 0, 1, 3, and 10 mg/kg of 5-Ph-IAA daily for 1 week. As shown in FIG. 7(B), a change in body weight of the mice which had been subjected to the administration was not observed.

[10] = biological target: T7, mAID-EGFP-POLD1 (Oryza sativa subsp. japonica, UniProt Q7XVM8, F74G); assay: Western blotting of mAID-EGFP-POLD1 degradation in HeLa cell (transposon vector + CRISPR-KO system); type: cell-based, human; settings: anti-POLD1 antibody, clones #1 to #3, endogenous POLD1 knocked out
T7 construct: P2A linker (self-cleaving; remnant); expressed in transfected cells; host or cells: HeLa
Text: as §2, §3, §4

O=C(O)Cc1c[nH]c2ccc(-c3ccccc3)cc12 [5-Ph-IAA, 5-phenyl-indole 3-acetic acid]
time to disappearance of reporter signal in embryos ([1]; 5 mg/kg intraperitoneally to pregnant females with E13.5 embryos): ≤ 1 h
expression of the reporter in organs ([1]; 10 mg/kg intraperitoneally, 6 hours after administration, ovary, fallopian tubes, small intestine, heart, bladder, brain, adult female): significantly reduced
degradation of GFP (FACS) at low concentrations [2]: functioned at a considerably low concentration
tumor suppression [3]: a similar tendency was observed
appearance of the cell (mitotic accumulation) ([4]; 24 hours after addition): accumulation of cells in the mitotic period was observed
degradation of DHC1-mAID-Clover fused protein (microscopic images) ([4]; 24 hours after addition): degraded a DHC1-mAID-Clover fused protein
degradation of DHC1 and mAID by Western blotting ([4]; clones #1 to #3): degradation of DHC1 and mAID was confirmed
tumor suppression ([5]; 3 mg/kg orally): significant tumor suppression
tumor suppression ([5]; 1, 3 and 10 mg/kg intraperitoneally daily, day 7 to day 14): significant tumor suppression
tumor suppression [6]: the tumor suppression was not observed
time to full restoration of reporter expression after medium replacement [7]: 3 h
degradation of mAID-EGFP-CENPH by Western blotting [8]: degradation of mAID-EGFP-CENPH was confirmed
change in body weight [9]: not observed
degradation of mAID-EGFP-POLD1 by Western blotting [10]: degradation of mAID-EGFP-POLD1 was confirmed
